Measured values: PubChem BioAssay (NCI)
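Tested at 5 concentrations; 48 h exposure; 96-well plates; endpoints linearly interpolated, else capped at highest concentration. TGI: concentration producing complete growth inhibition.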

How the values were obtained:
Experiment in all cases: NCI tumour cell line growth inhibition, 48 h
[1] = tested on: UACC-62 melanoma
[2] = tested on: SK-MEL-28 melanoma
[3] = tested on: SF-295 CNS
[4] = tested on: MDA-N
[5] = tested on: OVCAR-8 ovarian
[6] = tested on: RPMI-8226 leukemia
[7] = tested on: CAKI-1 renal
[8] = tested on: 786-0 renal
[9] = tested on: NCI-H23 lung
[10] = tested on: TK-10 renal
[11] = tested on: SF-268 CNS
[12] = tested on: RXF 393 renal
[13] = tested on: SNB-19 CNS
[14] = tested on: SK-OV-3 ovarian
[15] = tested on: KM12 colon
[16] = tested on: M14 melanoma
[17] = tested on: A498 renal
[18] = tested on: MCF7 breast
[19] = tested on: U251 CNS
[20] = tested on: SK-MEL-5 melanoma
[21] = tested on: NCI-H460 lung
[22] = tested on: IGROV1 ovarian
[23] = tested on: HS 578T breast
[24] = tested on: SR leukemia
[25] = tested on: OVCAR-3 ovarian
[26] = tested on: MDA-MB-435
[27] = tested on: HOP-62 NSCLC
[28] = tested on: EKVX NSCLC
[29] = tested on: HT29 colon
[30] = tested on: UO-31 renal
[31] = tested on: SF-539 CNS
[32] = tested on: A549 NSCLC
[33] = tested on: UACC-257 melanoma
[34] = tested on: DU-145 prostate
[35] = tested on: NCI-H226 lung
[36] = tested on: ACHN renal
[37] = tested on: HL-60(TB) leukemia
[38] = tested on: OVCAR-4 ovarian
[39] = tested on: MDA-MB-231 breast
[40] = tested on: NCI/ADR-RES ovarian
[41] = tested on: CCRF-CEM leukemia
[42] = tested on: SK-MEL-2 melanoma
[43] = tested on: K-562 leukemia
[44] = tested on: LOX IMVI melanoma
[45] = tested on: HCT-15 colon
[46] = tested on: BT-549 breast
[47] = tested on: HCT-116 colon
[48] = tested on: OVCAR-5 ovarian
[49] = tested on: COLO 205 colon
[50] = tested on: T-47D breast
[51] = tested on: HCC-2998 colon
[52] = tested on: SN12C renal
[53] = tested on: MALME-3M melanoma
[54] = tested on: PC-3 prostate
[55] = tested on: SNB-75 CNS
[56] = tested on: HOP-92 NSCLC
[57] = tested on: SW-620 colon
[58] = tested on: MOLT-4 leukemia

Compound: O=C1c2c(O)cccc2Cc2cccc(O)c21
- TGI [1]: 3.07 µM
- TGI [2]: 3.75 µM
- TGI [3]: 0.782 µM
- TGI [4]: 10.2 µM
- TGI [5]: 1.04 µM
- TGI [6]: 1.03 µM
- TGI [7]: 1.2 µM
- TGI [8]: 1.76 µM
- TGI [9]: 12.8 µM
- TGI [10]: 5.35 µM
- TGI [11]: 3.25 µM
- TGI [12]: 1.33 µM
- TGI [13]: 5.39 µM
- TGI [14]: 1.21 µM
- TGI [15]: 1.32 µM
- TGI [16]: 1.97 µM
- TGI [17]: 4.81 µM
- TGI [18]: 0.664 µM
- TGI [19]: 1.47 µM
- TGI [20]: 0.33 µM
- TGI [21]: 1.31 µM
- TGI [22]: 1.56 µM
- TGI [23]: 1.09 µM
- TGI [24]: 1.74 µM
- TGI [25]: 1.97 µM
- TGI [26]: 11.2 µM
- TGI [27]: 1.32 µM
- TGI [28]: 0.572 µM
- TGI [29]: 1.55 µM
- TGI [30]: 1.15 µM
- TGI [31]: 0.923 µM
- TGI [32]: 1.07 µM
- TGI [33]: 0.653 µM
- TGI [34]: 0.942 µM
- TGI [35]: 1.27 µM
- TGI [36]: 1.1 µM
- TGI [37]: 0.672 µM
- TGI [38]: 1.8 µM

Compound: N#CC(=S)Nc1cccc(Cl)c1
- TGI [1]: > 100 µM
- TGI [2]: > 100 µM
- TGI [3]: > 100 µM
- TGI [39]: > 100 µM
- TGI [40]: > 100 µM
- TGI [41]: > 100 µM
- TGI [42]: > 100 µM
- TGI [43]: > 100 µM
- TGI [4]: > 100 µM
- TGI [5]: > 100 µM
- TGI [6]: 61.4 µM
- TGI [44]: > 100 µM
- TGI [7]: > 100 µM
- TGI [8]: > 100 µM
- TGI [9]: > 100 µM
- TGI [10]: > 100 µM
- TGI [11]: > 100 µM
- TGI [45]: > 100 µM
- TGI [12]: > 100 µM
- TGI [13]: > 100 µM
- TGI [46]: > 100 µM
- TGI [14]: 87.9 µM
- TGI [47]: > 100 µM
- TGI [15]: > 100 µM
- TGI [48]: > 100 µM
- TGI [16]: > 100 µM
- TGI [49]: > 100 µM
- TGI [17]: > 100 µM
- TGI [18]: > 100 µM
- TGI [50]: > 100 µM
- TGI [51]: 83.1 µM
- TGI [19]: > 100 µM
- TGI [20]: 44.5 µM
- TGI [21]: > 100 µM
- TGI [22]: 29.4 µM
- TGI [52]: > 100 µM
- TGI [25]: 56.4 µM
- TGI [53]: > 100 µM
- TGI [26]: > 100 µM
- TGI [54]: > 100 µM
- TGI [27]: > 100 µM
- TGI [28]: > 100 µM
- TGI [29]: > 100 µM
- TGI [55]: 75.9 µM
- TGI [56]: > 100 µM
- TGI [31]: 93.7 µM
- TGI [57]: > 100 µM
- TGI [32]: > 100 µM
- TGI [33]: > 100 µM
- TGI [34]: > 100 µM
- TGI [35]: > 100 µM
- TGI [36]: > 100 µM
- TGI [37]: 70.4 µM
- TGI [58]: > 100 µM
- TGI [38]: > 100 µM
